Data published in ChEMBL document CHEMBL1157276, “Halogenated monoterpenes from plocamium costatum and their biological activity1” (1999).

How the values were obtained:
Assay type in all cases: functional
Amphibalanus amphitrite [1] = assay: Antifouling activity against cypris larvae at 10 ug/cm'2
Amphibalanus amphitrite [2] = assay: Antifouling activity against cypris larvae at 1 ug/cm'2
Amphibalanus amphitrite [3] = assay: Antifouling activity against cypris larvae at 0.1 ug/cm'2
Amphibalanus amphitrite [4] = assay: Antifouling activity against cypris larvae at 0.01 ug/cm'2

Row | SMILES | Activity (Amphibalanus amphitrite [1]) [%] | Activity (Amphibalanus amphitrite [2]) [%] | Activity (Amphibalanus amphitrite [3]) [%] | Activity (Amphibalanus amphitrite [4]) [%]
1 | C=CC(C)(O)CCCC(C)CCCC(C)CCCC(C)C (configuration not stated) | 13 | 23 | 54 | 43
2 | C[C@](Cl)(/C=C/[C@H](Cl)[C@](C)(Cl)/C=C/Br)C(Br)Br | 2.2 | 37 | 54 | 42
3 | C=C(C)C(Cl)C/C=C(\C)C(Cl)CBr (configuration not stated) | 58 | 53 | 52 | 57
